Measurements published in patent US20240101958A1, “NOVEL HUMAN ERYTHROID PROGENITOR CELL LINE HIGHLY […] B19 INFECTION AND USES THEREOF” (priority 2020, published 2024).

Experiments:
[1] = system: B19V; experiment: B19V infection of hematopoietic cell lines, VP2 mRNA by RT-qPCR normalized to beta-actin; conditions: for decrease of B19V infection by a factor: UT7/Epo-STI cells treated two days before B19V infection (JQ1 0.5 μM, TGF-β 2 ng/mL), 72 h post-inoculation
Experimental: Three distinct UT-7/Epo cell lines were used: 1) UT-7/Epo-S1, a subclone of UT-7/Epo (16), was obtained from Dr Kazuo Sugamura (Tohoku University Graduate School of Medicine, Japan). 2) UT-7/Epo and UT7/Epo-Cl3, a subclone isolated from UT-7/Epo3) UT7/Epo-STI cells were derived from UT-7/GM cell line and were maintained at low passage, with stringency for erythroid features. UT-7 cells were maintained at 37° C., under an atmosphere containing 5% CO2, in alpha minimum essential medium (αMEM) supplemented with 10% fetal calf serum (FCS), 2 mM L-glutamine (Hyclone), 100 U/mL penicillin, 100 μg/mL streptomycin and 2 U/mL recombinant human Erythropoietin (rh-Epo, Euromedex, RC213-15). Where specified, 0.5 μM JQ1 (Sigma-Aldrich, France) or 2 ng/mL TGF-β (Peprotech, France) was added to the culture medium for two days before B19V infection. TF1 (12) and TF1-ER erythroleukemia cells were maintained in Roswell Park Memorial Institute (RPM!) 1640 medium supplemented with 10% FCS, 2 mM L-glutamine (Hyclone), 100 U/mL penicillin, 100 μg/mL streptomycin and 2 U/mL rh-Epo or 5 ng/mL human granulocyte macrophage colony-stimulating factor (GM-CSF, Peprotech).
Plasma samples containing high titers of infectious B19V from asymptomatic blood donors were provided by the Etablissement Français du Sang (EFS). Plasma samples were determined to be negative for both B19V IgG and IgM, with a viral titer of 10^11 B19V DNA genome equivalent (ge)/mL. Briefly, cells were maintained in exponential growth condition by dilution to 0.3×10^6 cells/mL the day before infection. On the day of infection, cells were washed and diluted in FCS-free medium without Epo, at a density of 10·10^6 cells/mL. B19V inoculation was carried out in a 96-well plate, with 10 μL of cell suspension (10^5 cells) and 50 μL of a 100-fold dilution of B19V plasma (10^9 ge/mL), corresponding to a mean of 500 ge/cell. The cells were then incubated at 4° C. for 2 h, and then at 37° C., for 1 h, under an atmosphere containing 5% CO2. We added 140 μL of complete medium and maintained the cells in culture until 72 h. Where specified, we added chloroquine (CQ) to the complete medium, at a final concentration of 25 μM. Cell viability was assessed by trypan blue exclusion test (0.4% in PBS, Thermo Fisher Scientific), by counting blue and total cells under a microscope, with a hemocytometer. After correction for the dilution factor, viability was calculated as follows: % viable cells=[1−(number of blue cells/number of total cell)]×100. At 24, 48 or 72 h post infection (hpi), cells were centrifuged (8 mins at 300×g), supernatants were discarded and cell pellets were frozen at −80° C. until analysis.
Total RNA was extracted from cell pellets with the RNeasy 96 QIAcubeHT kit and a QIAcubeHT machine, according to the manufacturer's instructions. The extraction step included DNase treatment for 15 minutes, to decrease the risk of genomic DNA amplification during PCR. Real-time reverse transcription-quantitative PCR (RT-qPCR) was performed with the Taqman Fast Virus one-step PCR kit (Applied Biosystems). […] For control and normalization with respect to the number of cells, we used a duplex strategy. […] Reactions were performed on 5 μL of extracted RNA with the QuantStudio 3 PCR system and. The reaction began with reverse transcription at 48° C. for 15 mins, followed by inactivation of the reverse transcriptase and activation of the polymerase by heating at 95° C. for 10 mins, followed by 40 cycles of 15s at 95° C. and 30 s at 60° C. […]

[2] = system: B19; experiment: Production of B19 genome copies equivalent per mL of cell culture, qPCR; assay type: cell-based, Human Parvovirus B19; conditions: UT7/Epo-E2 cell line after chloroquine treatment, 96 h post infection
Experimental: Cells (day 8 CD36^+EPC, UT7/Epo-S1, UT7/Epo-STI and UT7/Epo-E2) were inoculated with B19. 24 h after inoculation (24 hpi), cells were washed. 3 days later (96 hpi), supernatant was collected, DNA was isolated and B19 DNA was quantified by qPCR according to a B19 DNA standard (GenBank accession no. AY386330). Results are means±SD of 3 independent experiments. For CD36+ EPC, results are means±SD of three day-8 erythroid culture from CD34+ hematopoietic stem cells isolated from 3 different umbilical cord blood.
B19 genome production (FIG. 12) and transcription (FIG. 13) was evaluated at 96h post infection in CD36+EPC cells (day 8) and UT7 cell lines with or without addition of chloroquine (FIG. 13A and B). 96 h post infection, DNA was extracted from an aliquot of 1 mL of cell culture and RNA from cell pellets. B19 genome production was evaluated by qPCR and genome equivalent (GEq)/mL was calculated according to a B19 genome calibration curve. Transcription was analysed by RT-qPCR as previously described. […] UT7/Epo-E2 cell line presents the highest quantity of B19 genome equivalent produced, with at least 7.65×10^7 GEq/mL after chloroquine treatment. […]

Row | Molecule | decrease of B19V infection by a factor [1] | quantity of B19 genome equivalent produced [2] | VP2 expression ([1]; TF1 and TF1-ER cells, under GM-CSF or Epo, with or without chloroquine treatment) | enhancement of UT7/Epo-S1 sensitivity to B19V (relative B19 mRNA expression) ([1]; UT7/Epo-S1 cells, chloroquine 25 μM, 72 h post-infection) | relative B19 mRNA level (VP2), UT7/Epo-S1 without chloroquine set to 1 ([1]; UT7/Epo-STI cells + chloroquine 25 μM, 72 h post-infection)
1 | Cc1sc2c(c1C)C(c1ccc(Cl)cc1)=N[C@@H](CC(=O)OC(C)(C)C)c1nnc(C)n1-2 [JQ1] | about 10 | – | – | – | –
2 | CCN(CC)CCCC(C)Nc1ccnc2cc(Cl)ccc12 (racemic) [Chloroquine, (RS)-N-(7-chloroquinolin-4-yl)-N,N-diéthyl-pentane-1,4-diamine] | – | at least 7.65×10^7 GEq/mL | undetectable | 5 fold | 25.8+4.9
3 | TGF-B: hormonal induction of erythroid differentiation (Peprotech) | about 10 | – | – | – | –
